# Laboratory results from US8268531B2, “Photoacid generator compounds and compositions” (Cornell Research Foundation, Inc., priority 2008, dated 2012).
# Columns and labels:
# [1] = Thermal properties (Td); type: physicochemical; details: thermal property of the PAG
# [2] = Optical properties: absorptivity at 248 nm in acetonitrile; type: physicochemical; details: Measured in acetonitrile
structure (smiles),measurement,setting,value
O=S(=O)(O)C(F)(F)C(F)(F)CCCl,Td,[1],205 °C
O=C1CCC(CC(F)(F)C(F)(F)OC(F)(F)C(F)(F)S(=O)(=O)O)O1 (centres unmarked),Td,[1],165 °C
same,ε248,[2],5400 cm^2 · mol^-1
O=S(=O)(O)C(F)(F)C(F)(F)Oc1ccccc1,Td,[1],190 °C
same,ε248,[2],6015 cm^2 · mol^-1
O=S(=O)(O)C(F)(F)C(F)(F)OC(F)(F)C(F)(F)C1CC2CCC1C2 (centres unmarked),Td,[1],164 °C
same,ε248,[2],5220 cm^2 · mol^-1
O=S(=O)(O)C(F)(F)C(F)(F)C(F)(F)C(F)(F)F,ε248,[2],4200 cm^2 · mol^-1
